Read-outs that look alike come from different tables or passages of the source.
Columns and labels:
[1] = tested on: CYP2B6; conditions: index drug data, healthy volunteers
Protocol: (§1) This open‐label cross‐over clinical trial included five study phases that each participant underwent in a randomized order (Table 1 ). There was at least 2‐week washout period between different study days.
(§2) On study days, venous blood samples from all participants were drawn from forearm vein cannulas before the administration of the pretreatment drugs and 5 minutes before and 0.5, 1, 1.5, 2, 3, 4, 6, 8, 12, and 23 hours after the administration of the index drugs for determination of index drug and metabolite concentrations. […] Blood glucose levels were monitored with CareSens Dual point‐of‐care blood glucose meter (i‐SENS Inc., Seoul, South Korea) at each venous blood sampling time point up to 12 hours after the administration of index drugs.
(§3) The flow rate was 0.3 mL/min, and the gradient program for the mobile phase B was from 20% to 90% over 7 minutes, wash at 90% 7–9.5 minutes, followed by balancing at 20% before next injection. […] The quality control samples for each analyte at relevant concentrations were quantified with each batch of plasma samples.
(§4) As for biomarkers, AUC0‐3h values in phases I–III and AUC0‐4h values in phases III–V for GCDCA‐3G and GCDCA‐3S and AUC0‐4h values in phases III and V for M430, M444, and solanidine were calculated with trapezoidal rule in Excel (Microsoft, Redmond, WA). […]

[2] = tested on: CYP2B6; conditions: 75 mg dose; ref US FDA; cited from earlier work
[3] = biological target: T1, OATP1B3 (Homo sapiens, UniProt Q9NPD5); assay: OATP1B3 endogenous biomarker GCDCA-3S in plasma; conditions: for OATP1B3 inhibition in the trial: GCDCA-3S biomarker data
T1 sequence (Q9NPD5 1-702): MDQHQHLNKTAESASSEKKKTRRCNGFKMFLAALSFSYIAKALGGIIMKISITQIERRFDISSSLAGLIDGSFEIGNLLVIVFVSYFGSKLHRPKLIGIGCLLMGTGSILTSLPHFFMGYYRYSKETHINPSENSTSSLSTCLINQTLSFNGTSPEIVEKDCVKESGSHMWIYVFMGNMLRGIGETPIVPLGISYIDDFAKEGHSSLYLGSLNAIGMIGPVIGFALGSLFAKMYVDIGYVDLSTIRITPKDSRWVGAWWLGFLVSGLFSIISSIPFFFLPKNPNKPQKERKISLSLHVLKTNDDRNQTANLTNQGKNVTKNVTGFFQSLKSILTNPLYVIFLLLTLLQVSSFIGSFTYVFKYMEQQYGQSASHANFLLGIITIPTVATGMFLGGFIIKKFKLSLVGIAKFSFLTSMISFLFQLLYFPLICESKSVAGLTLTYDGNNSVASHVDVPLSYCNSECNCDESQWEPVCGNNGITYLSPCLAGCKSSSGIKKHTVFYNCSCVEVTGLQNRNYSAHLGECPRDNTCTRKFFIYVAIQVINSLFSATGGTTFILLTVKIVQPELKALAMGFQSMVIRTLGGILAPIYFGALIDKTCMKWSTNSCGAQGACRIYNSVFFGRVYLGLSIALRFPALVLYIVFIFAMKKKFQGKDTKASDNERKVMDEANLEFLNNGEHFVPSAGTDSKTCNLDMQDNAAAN
Protocol: (§5) On study days, venous blood samples from all participants were drawn from forearm vein cannulas before the administration of the pretreatment drugs and 5 minutes before and 0.5, 1, 1.5, 2, 3, 4, 6, 8, 12, and 23 hours after the administration of the index drugs for determination of index drug and metabolite concentrations. Additional venous blood samples for biomarker analyses were drawn before the administration of the pretreatment drugs and 5 minutes before and 3 hours after the administration of the index drugs.
(§6) Plasma repaglinide, OATP1B1 biomarker GCDCA‐3G, OATP1B3 biomarker GCDCA‐3S, and CYP2D6 biomarker solanidine were analyzed using Sciex 5500 Qtrap and Sciex 6500 Qtrap LC–MS systems (AB Sciex, Toronto, ON, Canada) as previously described.[20], [21], [22] The limit of quantification for repaglinide was 0.01 ng/mL. The between‐day precisions (CV%) for quality controls (0.1 and 2.0 ng/mL) were below 10% and accuracies were within ±10%. For GCDCA‐3G and GCDCA‐3S, the limit of quantification was 0.5 ng/mL and the between‐day precisions and accuracies were below 5% and ± 10% at relevant concentrations (10 and 200 ng/mL).
(§7) As for biomarkers, AUC0‐3h values in phases I–III and AUC0‐4h values in phases III–V for GCDCA‐3G and GCDCA‐3S and AUC0‐4h values in phases III and V for M430, M444, and solanidine were calculated with trapezoidal rule in Excel (Microsoft, Redmond, WA).
(§8) Individuals with poor metabolism or transport function phenotype were excluded from respective statistical comparisons. Additionally, to keep comparisons balanced, subjects lacking pharmacokinetic variable data in any study phase were excluded from the respective analyses. Prior to statistical analyses with IBM SPSS Statistics Version 29.0 for Windows (IBM Corporation, Armonk, NY), all pharmacokinetic variable values were logarithmically transformed. Pharmacokinetic variables except T max were compared between different study phases by repeated‐measures analysis of variance with study phase as a within‐subjects factor. T max values were compared with Wilcoxon signed‐rank test. Differences with P < 0.05 after the Bonferroni correction were considered statistically significant. The data are presented as geometrical mean values or geometric mean ratios with geometric CV or 90% confidence intervals (CI) if not otherwise indicated.

[4] = Plasma pharmacokinetics of pretreatment drugs clopidogrel, gemfibrozil and their metabolites; format: in vivo; conditions: human, after clopidogrel 300 mg single oral dose (phase IV)
Protocol: as §1
(§9) On study days, venous blood samples from all participants were drawn from forearm vein cannulas before the administration of the pretreatment drugs and 5 minutes before and 0.5, 1, 1.5, 2, 3, 4, 6, 8, 12, and 23 hours after the administration of the index drugs for determination of index drug and metabolite concentrations. Additional venous blood samples for biomarker analyses were drawn before the administration of the pretreatment drugs and 5 minutes before and 3 hours after the administration of the index drugs. Standardized breakfast was served 1 hour, lunch 3 hours, and snacks 7 and 9 hours after the administration of index drugs. Blood glucose levels were monitored with CareSens Dual point‐of‐care blood glucose meter (i‐SENS Inc., Seoul, South Korea) at each venous blood sampling time point up to 12 hours after the administration of index drugs.
The quality control samples for each analyte at relevant concentrations were quantified with each batch of plasma samples.

[5] = tested on: OATP1B1; assay: OATP1B1 endogenous biomarker GCDCA-3G in plasma; conditions: for OATP1B1 inhibition in the trial: GCDCA-3G biomarker data
Protocol: as §5, §6, §7, §8

[6] = biological target: CYP2C19 (Homo sapiens, UniProt P33261); conditions: index drug data, healthy volunteers
Protocol: as §1, §2, §3, §4

[7] = biological target: T2, CYP2C8 (Homo sapiens, UniProt P10632); assay: CYP2C8 phenotyping with index drug repaglinide; conditions: repaglinide index drug data, healthy volunteers
T2 sequence (P10632 1-490): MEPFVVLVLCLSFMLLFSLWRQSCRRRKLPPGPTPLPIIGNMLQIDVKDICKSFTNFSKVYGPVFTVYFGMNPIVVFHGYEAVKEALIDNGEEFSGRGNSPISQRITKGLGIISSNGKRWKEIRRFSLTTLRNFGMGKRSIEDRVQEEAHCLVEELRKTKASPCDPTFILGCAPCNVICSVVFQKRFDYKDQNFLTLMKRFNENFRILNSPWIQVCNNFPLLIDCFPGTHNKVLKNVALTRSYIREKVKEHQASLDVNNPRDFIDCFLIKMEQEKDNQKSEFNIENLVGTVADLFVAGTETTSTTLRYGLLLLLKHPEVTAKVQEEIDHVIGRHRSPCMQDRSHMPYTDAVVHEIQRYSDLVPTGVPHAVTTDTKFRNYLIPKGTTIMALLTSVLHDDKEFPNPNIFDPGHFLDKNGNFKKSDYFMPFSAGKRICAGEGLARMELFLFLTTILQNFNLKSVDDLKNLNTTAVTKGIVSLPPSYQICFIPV
Protocol: as §1, §2
(§10) The limit of quantification for repaglinide was 0.01 ng/mL. […] For GCDCA‐3G and GCDCA‐3S, the limit of quantification was 0.5 ng/mL and the between‐day precisions and accuracies were below 5% and ± 10% at relevant concentrations (10 and 200 ng/mL).
(§11) As for biomarkers, AUC0‐3h values in phases I–III and AUC0‐4h values in phases III–V for GCDCA‐3G and GCDCA‐3S and AUC0‐4h values in phases III and V for M430, M444, and solanidine were calculated with trapezoidal rule in Excel (Microsoft, Redmond, WA). 0‐hour metabolic ratio and AUC0‐4h ratios were calculated for M430/solanidine and M444/solanidine. […]

[8] = biological target: T2, CYP2C8; conditions: in vivo
Protocol: as §1, §2, §10, §11

[9] = tested on: CYP2D6; conditions: in vivo
Protocol: as §1, §2, §3, §4

[10] = tested on: CYP2C9; conditions: index drug data, healthy volunteers
Protocol: as §1, §2, §3, §4

[11] = biological target: T3, CYP1A2 (Homo sapiens, UniProt P05177); assay: CYP1A2 phenotyping, paraxanthine/caffeine metabolic ratios; format: in vivo; conditions: index drug data, healthy volunteers
T3 sequence (P05177 1-516): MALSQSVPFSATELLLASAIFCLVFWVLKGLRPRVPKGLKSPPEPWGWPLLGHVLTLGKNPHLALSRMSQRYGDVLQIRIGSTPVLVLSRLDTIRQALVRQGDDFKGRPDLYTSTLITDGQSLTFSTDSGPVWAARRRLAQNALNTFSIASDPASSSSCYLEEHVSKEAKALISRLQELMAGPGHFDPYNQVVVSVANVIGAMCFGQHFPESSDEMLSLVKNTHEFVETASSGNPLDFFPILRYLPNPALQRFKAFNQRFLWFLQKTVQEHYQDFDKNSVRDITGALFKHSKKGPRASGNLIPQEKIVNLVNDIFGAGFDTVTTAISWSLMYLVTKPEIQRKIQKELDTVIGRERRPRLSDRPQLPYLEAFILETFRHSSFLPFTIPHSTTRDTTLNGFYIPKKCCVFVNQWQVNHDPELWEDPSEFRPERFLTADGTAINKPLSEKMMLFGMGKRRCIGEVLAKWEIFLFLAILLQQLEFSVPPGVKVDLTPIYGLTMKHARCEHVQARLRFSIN
Protocol: as §1, §2, §3, §4

[12] = Safety: adverse effects and blood glucose monitoring; format: in vivo, human
Protocol: as §9

[13] = Plasma pharmacokinetics of cocktail index drugs and their metabolites, five-phase crossover trial; conditions: phase I: repaglinide 0.05 mg alone;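 further: parameters derived from plasma drug levels quantified by LC–MS with internal standards after acetonitrile protein precipitation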
Protocol: as §1
(§12) On study days, venous blood samples from all participants were drawn from forearm vein cannulas before the administration of the pretreatment drugs and 5 minutes before and 0.5, 1, 1.5, 2, 3, 4, 6, 8, 12, and 23 hours after the administration of the index drugs for determination of index drug and metabolite concentrations. […] Standardized breakfast was served 1 hour, lunch 3 hours, and snacks 7 and 9 hours after the administration of index drugs.
(§13) Prior to the analysis, the analytes were extracted from the plasma samples with simple protein precipitation. Plasma samples (50 μL) were mixed with acetonitrile solution (200 μL) containing internal standards. The samples were centrifugated and an aliquot of the supernatant was mixed with an equal volume of water before LC–MS analyses.
(§14) The flow rate was 0.3 mL/min, and the gradient program for the mobile phase B was from 20% to 90% over 7 minutes, wash at 90% 7–9.5 minutes, followed by balancing at 20% before next injection. […] The column and mobile phases were the same as above, and the gradient program for the mobile phase B was from 40% to 90% over 5 minutes, wash at 90% 5–7.3 minutes, followed by balancing at 40% before next injection. The quality control samples for each analyte at relevant concentrations were quantified with each batch of plasma samples.
(§15) Individuals with poor metabolism or transport function phenotype were excluded from respective statistical comparisons.

[14] = clinical; conditions: human, in vivo; for AUC(0-t) / AUC(0-inf) / Cmax: geometric mean (geometric CV); for AUC(0-inf): AUC0-∞; for half-life: t1/2, geometric mean (geometric CV)
Protocol: as §1, §12, §13, §14, §15

[15] = N = 16, clopidogrel pretreatment
[16] = N = 16, gemfibrozil pretreatment
[17] = N = 16, phase III full cocktail (control)
[18] = OATP1B1 normal/decreased function (N = 13), clopidogrel pretreatment
[19] = OATP1B1 normal/decreased function (N = 13), gemfibrozil pretreatment
[20] = OATP1B1 normal/decreased function (N = 13), phase III full cocktail (control)
[21] = OATP1B1 poor function (N = 3), clopidogrel pretreatment
[22] = OATP1B1 poor function (N = 3), gemfibrozil pretreatment
[23] = OATP1B1 poor function (N = 3), phase III full cocktail (control)
[24] = 0.05 mg, phase I: repaglinide 0.05 mg alone
[25] = phase IV: clopidogrel 300 mg pretreatment + full cocktail
[26] = phase V: gemfibrozil 600 mg b.i.d. 3 days pretreatment + full cocktail

Sequence of CYP2C19 (P33261 whole entry): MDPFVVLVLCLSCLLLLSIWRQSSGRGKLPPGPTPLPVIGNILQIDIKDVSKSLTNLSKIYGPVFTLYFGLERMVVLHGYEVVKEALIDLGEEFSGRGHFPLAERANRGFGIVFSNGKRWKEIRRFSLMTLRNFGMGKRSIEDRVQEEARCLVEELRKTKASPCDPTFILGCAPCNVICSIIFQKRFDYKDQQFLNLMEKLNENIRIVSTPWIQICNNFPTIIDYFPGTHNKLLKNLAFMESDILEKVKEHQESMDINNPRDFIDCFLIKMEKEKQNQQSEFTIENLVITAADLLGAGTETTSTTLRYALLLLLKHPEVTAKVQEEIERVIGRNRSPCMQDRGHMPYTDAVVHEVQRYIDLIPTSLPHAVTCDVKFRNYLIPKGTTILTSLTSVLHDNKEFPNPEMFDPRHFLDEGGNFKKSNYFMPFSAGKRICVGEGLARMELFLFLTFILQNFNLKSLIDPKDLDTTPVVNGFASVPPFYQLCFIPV

COC(=O)[C@H](c1ccccc1Cl)N1CCc2sccc2C1 [Clopidogrel, clopidogrel]
CYP2B6 inhibition strength in the trial [1]: moderate | CYP2B6 inhibitor classification [2]: weak | OATP1B3 inhibition in the trial [3]: did not affect | Cmax [4]: 3.75 ng/mL | AUC(0-t) ([4]; read-out: AUC0-24h, geometric mean (90% CI)): 11.6 ng·h/mL | OATP1B1 inhibition in the trial [5]: did not affect | CYP2C19 inhibition strength in the trial [6]: weak | CYP2C8 inhibition strength in the trial [7]: moderate

C[C@H](CCC(=O)NCC(=O)O)C1CCC2C3C(CC[C@@]21C)[C@@]1(C)CC[C@@H](OS(=O)(=O)O)C[C@H]1C[C@H]3O (stereo partly drawn) [GCDCA‐3S, glycochenodeoxycholate 3‐sulfate]
GCDCA-3S AUC0-4h, geometric mean (geometric CV) [3, 15]: 146 (61.8%) ng × h/mL | GCDCA-3S C0, geometric mean (geometric CV) [3, 15]: 49.2 (69.3%) ng/mL | GCDCA-3S AUC0-4h, geometric mean (geometric CV) [3, 16]: 212 (46.9%) ng × h/mL | GCDCA-3S C0, geometric mean (geometric CV) [3, 16]: 65.5 (72.9%) ng/mL | GCDCA-3S AUC0-3h, geometric mean (geometric CV) [3, 17]: 141 (68.3%) ng×h/mL | GCDCA-3S AUC0-4h, geometric mean (geometric CV) [3, 17]: 190 (67.4%) ng × h/mL | GCDCA-3S C0, geometric mean (geometric CV) [3, 17]: 50.8 (85.3%) ng/mL | GCDCA-3S AUC0-3h, geometric mean (geometric CV) ([3]; N=16, phase I repaglinide only): 119 (69.0%) ng×h/mL | GCDCA-3S AUC0-3h, geometric mean (geometric CV) ([3]; N=16, phase II Geneva cocktail only): 106 (65.4%) ng×h/mL

C[C@H](CCC(=O)NCC(=O)O)[C@H]1CC[C@H]2[C@@H]3[C@H](O)C[C@@H]4C[C@H](O[C@@H]5O[C@H](C(=O)O)[C@@H](O)[C@H](O)[C@H]5O)CC[C@]4(C)[C@H]3CC[C@]12C [GCDCA‐3G, glycochenodeoxycholate 3‐O‐glucuronide]
GCDCA-3G AUC0-4h, geometric mean (geometric CV) [5, 18]: 77.5 (69.9%) ng × h/mL | GCDCA-3G C0, geometric mean (geometric CV) [5, 18]: 21.7 (81.7%) ng/mL | GCDCA-3G AUC0-4h, geometric mean (geometric CV) [5, 19]: 118 (65.4%) ng × h/mL | GCDCA-3G C0, geometric mean (geometric CV) [5, 19]: 35.7 (82.5%) ng/mL | GCDCA-3G AUC0-3h, geometric mean (geometric CV) [5, 20]: 66.3 (49.6%) ng×h/mL | GCDCA-3G AUC0-4h, geometric mean (geometric CV) [5, 20]: 88.6 (51.3%) ng × h/mL | GCDCA-3G C0, geometric mean (geometric CV) [5, 20]: 22.9 (60.0%) ng/mL | GCDCA-3G AUC0-3h, geometric mean (geometric CV) ([5]; OATP1B1 normal/decreased function (N=13), phase I repaglinide only): 68.3 (61.0%) ng×h/mL | GCDCA-3G AUC0-3h, geometric mean (geometric CV) ([5]; OATP1B1 normal/decreased function (N=13), phase II Geneva cocktail only): 63.6 (75.2%) ng×h/mL | GCDCA-3G AUC0-4h, geometric mean (geometric CV) [5, 21]: 791 (56.1%) ng × h/mL | GCDCA-3G C0, geometric mean (geometric CV) [5, 21]: 238 (57.2%) ng/mL | GCDCA-3G AUC0-4h, geometric mean (geometric CV) [5, 22]: 809 (75.4%) ng × h/mL | GCDCA-3G C0, geometric mean (geometric CV) [5, 22]: 215 (79.1%) ng/mL | GCDCA-3G AUC0-4h, geometric mean (geometric CV) [5, 23]: 755 (48.4%) ng × h/mL | GCDCA-3G C0, geometric mean (geometric CV) [5, 23]: 206 (73.8%) ng/mL

Cc1ccc(C)c(OCCCC(C)(C)C(=O)O)c1 [Gemfibrozil, gemfibrozil]
CYP2C8 inhibition strength in the trial [8]: strong | CYP2D6 inhibition in the trial [9]: lack of any clinically meaningful | OATP1B3 inhibition in the trial [3]: does not affect | OATP1B1 inhibition in the trial [5]: slightly inhibits and weak | CYP2C9 inhibition in the trial [10]: lack of any clinically meaningful | CYP1A2 inhibition strength in the trial [11]: weak

CCOc1cc(CC(=O)N[C@@H](CC(C)C)c2ccccc2N2CCCCC2)ccc1C(=O)O [Repaglinide, repaglinide]
Hypoglycemia ([12]; 0.05 mg repaglinide, breakfast an hour later, also after gemfibrozil pretreatment): no hypoglycemia was observed | Safety / adverse effects ([12]; all study phases, 16 healthy volunteers): safe | Tmax, median (range) [13]: 0.5 (0.5-1.0) h | AUC(0-t) ([14]; 0.05 mg, AUC0-4h, phase I: repaglinide 0.05 mg alone): 0.936 ng·h/mL | AUC(0-t) ([14]; 0.05 mg, AUC0-23h, phase I: repaglinide 0.05 mg alone): 1.01 ng·h/mL | AUC(0-inf) [14, 24]: 1.01 ng·h/mL | Cmax [14, 24]: 0.701 ng/mL | half-life [14, 24]: 1.07 h | AUC(0-t) ([14]; AUC0-4h, phase IV: clopidogrel 300 mg pretreatment + full cocktail): 3.7 ng·h/mL | AUC(0-t) ([14]; AUC0-4h, phase V: gemfibrozil 600 mg b.i.d. 3 days pretreatment + full cocktail): 4.93 ng·h/mL | AUC(0-t) ([14]; AUC0-23h, phase IV: clopidogrel 300 mg pretreatment + full cocktail): 5.55 ng·h/mL | AUC(0-t) ([14]; AUC0-23h, phase V: gemfibrozil 600 mg b.i.d. 3 days pretreatment + full cocktail): 9.21 ng·h/mL | AUC(0-inf) [14, 25]: 5.65 ng·h/mL | AUC(0-inf) [14, 26]: 9.64 ng·h/mL | Cmax [14, 25]: 1.69 ng/mL | Cmax [14, 26]: 2.08 ng/mL | Tmax ([14]; Tmax, median (range), phase IV: clopidogrel 300 mg pretreatment + full cocktail): 1 h | half-life [14, 25]: 2.78 h | half-life [14, 26]: 3.35 h

Source: paper PMC12087695, “A Phenotyping Tool for Seven Cytochrome P450 Enzymes and Two Transporters: Application to Examine the Effects of Clopidogrel and Gemfibrozil” (Clinical Pharmacology and Therapeutics, 2025)
